Test system: NLRP3 inflammasome
Assay: NLRP3 inflammasome activation: ASC-SPECK formation in gramicidin-stimulated THP-1 cells
Type: cell-based
Conditions: Homo sapiens, THP-1, inhibition of ASC SPECK formation; PMA-treated human monocytic THP-1 cells, compound 1 h before 12.5 μg/ml gramicidin, 3-hour treatment
In short: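 Undifferentiated human THP-1 cells primed overnight with 10 ng/ml PMA, then given compounds 1 h before 12.5 μg/ml gramicidin for 3 h at 37° C in RPMI with 0.01% BSA. Fixed cells immunostained for ASC with DRAQ5 nuclear counterstain; DRAQ5-positive cells with ASC specks counted by high-content imaging; EC50 from curve fitting.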

Q: For Cc1cc(C(F)(F)F)cc(O)c1-c1cnc2cn(C3CCOCC3)nc2n1 [Example 1, 3-methyl-2-(2-(tetrahydro-2H-pyran-4-yl)-2H-pyrazolo[3,4-b]pyrazin-6-yl)-5-(trifluoromethyl)phenol], which EC50 is on record?
A: 71 nM

Q: For Cc1cc(C(F)(F)F)cc(O)c1-c1cnc2cn(C34CC(C3)S(=O)(=O)C4)nc2n1 [Example 2, 4-(6-(2-hydroxy-6-methyl-4-(trifluoromethyl)phenyl)-2H-pyrazolo[3,4-b]pyrazin-2-yl)-2-thiabicyclo[2.1.1]hexane 2,2-dioxide], which EC50 is on record?
A: 50 nM

Q: Cc1cc(C(F)(F)F)cc(O)c1-c1cnc2cn([C@H]3CCC(=O)N(C)C3)nc2n1 [Example 5, (5S)-5-[6-[2-hydroxy-6-methyl-4-(trifluoromethyl)phenyl]pyrazolo[3,4-b]pyrazin-2-yl]-1-methyl-piperidin-2-one] was tested. Which EC50 did it give?
A: 13 nM

Q: How did the EC50 turn out when Cc1cc(C(F)(F)F)cc(O)c1-c1cnc2cn(C[C@@H]3CCN(C)C3)nc2n1 [Example 6, (R)-3-methyl-2-(2-((1-methylpyrrolidin-3-yl)methyl)-2H-pyrazolo[3,4-b]pyrazin-6-yl)-5-(trifluoromethyl)phenol] was run?
A: 35 nM

Q: How did the EC50 turn out when Cc1cc(C(F)(F)F)cc(O)c1-c1cnc2cn(C[C@H]3CNC(=O)C3)nc2n1 [Example 7, (R)-4-((6-(2-hydroxy-6-methyl-4-(trifluoromethyl)phenyl)-2H-pyrazolo[3,4-b]pyrazin-2-yl)methyl)pyrrolidin-2-one] was run?
A: 46 nM

Q: How did the EC50 turn out when Cc1cc(C(F)(F)F)cc(O)c1-c1cnc2cn(C34CC(C#N)(C3)C4)nc2n1 [Example 8, 3-(6-(2-hydroxy-6-methyl-4-(trifluoromethyl)phenyl)-2H-pyrazolo[3,4-b]pyrazin-2-yl)bicyclo[1.1.1]pentane-1-carbonitrile] was run?
A: 38 nM

Q: With Cc1cc(C(F)(F)F)cc(O)c1-c1cnc2cn([C@@H]3[C@@H]4COC[C@@H]43)nc2n1 [Example 9, 2-(2-((1R,5S,6S)-3-oxabicyclo[3.1.0]hexan-6-yl)-2H-pyrazolo[3,4-b]pyrazin-6-yl)-3-methyl-5-(trifluoromethyl)phenol] as the compound, how does the EC50 read?
A: 59 nM

Q: With Cc1cc(C(F)(F)F)cc(O)c1-c1cnc2cn([C@H]3[C@@H]4COC[C@@H]43)nc2n1 [Example 10, 2-(2-((1R,5S,6R)-3-oxabicyclo[3.1.0]hexan-6-yl)-2H-pyrazolo[3,4-b]pyrazin-6-yl)-3-methyl-5-(trifluoromethyl)phenol] as the compound, how does the EC50 read?
A: 34 nM

Q: For Cc1cc(C(F)(F)F)cc(O)c1-c1cnc2cn([C@H]3CC[C@@H](C#N)CC3)nc2n1 [Example 11, (1S,4S)-4-(6-(2-hydroxy-6-methyl-4-(trifluoromethyl)phenyl)-2H-pyrazolo[3,4-b]pyrazin-2-yl)cyclohexane-1-carbonitrile], which EC50 is on record?
A: 1500 nM

Q: For Cc1cc(C(F)(F)F)cc(O)c1-c1cnc2cn(CC(C)(C)C#N)nc2n1 [Example 12, 3-(6-(2-hydroxy-6-methyl-4-(trifluoromethyl)phenyl)-2H-pyrazolo[3,4-b]pyrazin-2-yl)-2,2-dimethylpropanenitrile], which EC50 is on record?
A: 658 nM

Q: Which EC50 does the source give for Cc1cc(C(F)(F)F)cc(O)c1-c1cnc2cn(CC3(C#N)CCC3)nc2n1 [Example 13, 1-((6-(2-hydroxy-6-methyl-4-(trifluoromethyl)phenyl)-2H-pyrazolo[3,4-b]pyrazin-2-yl)methyl)cyclobutane-1-carbonitrile] here?
A: 264 nM

Q: How did the EC50 turn out when Cc1cc(C(F)(F)F)cc(O)c1-c1cnc2cn(C34COCC(C3)C4)nc2n1 [Example 14, 2-(2-(3-oxabicyclo[3.1.1]heptan-1-yl)-2H-pyrazolo[3,4-b]pyrazin-6-yl)-3-methyl-5-(trifluoromethyl)phenol] was run?
A: 154 nM

Q: How did the EC50 turn out when Cc1cc(C(F)(F)F)cc(O)c1-c1cnc2cn(C34CCOC(C)(C3)C4)nc2n1 [Example 15, 3-methyl-2-(2-(1-methyl-2-oxabicyclo[3.1.1]heptan-5-yl)-2H-pyrazolo[3,4-b]pyrazin-6-yl)-5-(trifluoromethyl)phenol] was run?
A: 84 nM

Q: Which EC50 does the source give for Cc1cc(C(F)(F)F)cc(O)c1-c1cnc2cn([C@H]3C[C@H](F)C3)nc2n1 [Example 16, 2-(2-((1R,3R)-3-fluorocyclobutyl)-2H-pyrazolo[3,4-b]pyrazin-6-yl)-3-methyl-5-(trifluoromethyl)phenol] here?
A: 25 nM

Q: How did the EC50 turn out when Cc1cc(C(F)(F)F)cc(O)c1-c1cnc2cn(C34COC(C3)C4)nc2n1 [Example 17, 2-(2-(2-oxabicyclo[2.1.1]hexan-4-yl)-2H-pyrazolo[3,4-b]pyrazin-6-yl)-3-methyl-5-(trifluoromethyl)phenol] was run?
A: 55 nM

Q: With Cc1cc(C(F)(F)F)cc(O)c1-c1cnc2cn([C@H]3C[C@@H](CC#N)C3)nc2n1 [Example 18, 2-((1s,3s)-3-(6-(2-hydroxy-6-methyl-4-(trifluoromethyl)phenyl)-2H-pyrazolo[3,4-b]pyrazin-2-yl)cyclobutyl)acetonitrile] as the compound, how does the EC50 read?
A: 465 nM

Q: How did the EC50 turn out when Cc1cc(C(F)(F)F)cc(O)c1-c1cnc2cn(C34CCC(O)(C3)C4)nc2n1 [Example 26, 4-[6-[2-hydroxy-6-methyl-4-(trifluoromethyl)phenyl]pyrazolo[3,4-b]pyrazin-2-yl]bicyclo[2.1.1]hexan-1-ol] was run?
A: 51 nM

Q: For Cc1cc(C(F)(F)F)cc(O)c1-c1cnc2cn(C34COC(C)(C3)C4)nc2n1 [Example 27, 3-methyl-2-[2-(1-methyl-2-oxabicyclo[2.1.1]hexan-4-yl)pyrazolo[3,4-b]pyrazin-6-yl]-5-(trifluoromethyl)phenol], which EC50 is on record?
A: 193 nM

Q: Cc1cc(C(F)(F)F)cc(O)c1-c1cnc2cn(C34CCC(O)(CC3)C4)nc2n1 [Example 28, 4-[6-[2-hydroxy-6-methyl-4-(trifluoromethyl)phenyl]pyrazolo[3,4-b]pyrazin-2-yl]norboman-1-ol] was tested. Which EC50 did it give?
A: 55 nM

Q: With Cc1cc(C(F)(F)F)cc(O)c1-c1cnc2cn([C@]3(C)CCS(=O)(=O)C3)nc2n1 [Example 29, 3-methyl-2-[2-[(3R)-3-methyl-1,1-dioxo-thiolan-3-yl]pyrazolo[3,4-b]pyrazin-6-yl]-5-(trifluoromethyl)phenol] as the compound, how does the EC50 read?
A: 232 nM

Q: Which EC50 does the source give for Cc1cc(C(F)(F)F)cc(O)c1-c1cnc2cn([C@@H]3CCS(=O)(=O)C3)nc2n1 [Example 30, 2-[2-[(3R)-1,1-dioxothiolan-3-yl]pyrazolo[3,4-b]pyrazin-6-yl]-3-methyl-5-(trifluoromethyl)phenol] here?
A: 407 nM

Q: For Cc1cc(C(F)(F)F)cc(O)c1-c1cnc2cn([C@H]3CCS(=O)(=O)C3)nc2n1 [Example 31, 2-[2-[(3S)-1,1-dioxothiolan-3-yl]pyrazolo[3,4-b]pyrazin-6-yl]-3-methyl-5-(trifluoromethyl)phenol], which EC50 is on record?
A: 265 nM

Q: Cc1cc(C(F)(F)F)cc(O)c1-c1cnc2cn([C@H]3COC[C@@H]3O)nc2n1 [Example 32, (3R,4S)-4-[6-[2-hydroxy-6-methyl-4-(trifluoromethyl)phenyl]pyrazolo[3,4-b]pyrazin-2-yl]tetrahydrofuran-3-ol] was tested. Which EC50 did it give?
A: 34 nM

Q: Which EC50 does the source give for Cc1cc(C(F)(F)F)cc(O)c1-c1cnc2cn([C@@H]3COC[C@H]3O)nc2n1 [Example 33, (3S,4R)-4-[6-[2-hydroxy-6-methyl-4-(trifluoromethyl)phenyl]pyrazolo[3,4-b]pyrazin-2-yl]tetrahydrofuran-3-ol] here?
A: 71 nM

Q: Cc1cc(C(F)(F)F)cc(O)c1-c1cnc2cn([C@@H]3COCC[C@H]3O)nc2n1 [Example 34, (3R,4R)-3-[6-[2-hydroxy-6-methyl-4-(trifluoromethyl)phenyl]pyrazolo[3,4-b]pyrazin-2-yl]tetrahydropyran-4-ol] was tested. Which EC50 did it give?
A: 44 nM
